Consider six compounds from patent US20260306460A1, “COMPOSITION FOR REMOVING AND INHIBITING SENESCENT CELLS, AND USES THEREOF” (LIFECEUTIX CO., LTD., priority 2023, published 2026).

What all share (assay type): in vivo, mouse
The test system of assay [1] is SAOS-2. The experiment in a line: Suppression of doxorubicin-senescent SAOS-2 tumors in nude mice, Example 19. The note with it: after DOX 10 mg/kg ip; 21 days daily; LX-5701 360 mg/kg po, LX-2101 20 mg/kg ip, LX-2102 10 mg/kg ip; DOX repeated as control. The protocol: Seven-week-old male BALB/c nude mice (KRIBB Laboratory Animal Resource Center) were acclimated to the experimental environment for one week, after which they were randomly assigned to experimental and control groups. Evaluation was performed using the same method as in Example 2-1 of WO2023-085787 A1. Cultured human osteosarcoma cell lines, SAOS-2 (10^6 cells), were mixed in phosphate-buffered saline (PBS) and administered subcutaneously to anesthetized mice using 2% isoflurane (Sigma). When the tumors reached approximately […], doxorubicin (10 mg/kg) was mixed in a 1:1 solution of distilled water and PBS (pH 7.2) and administered intraperitoneally to induce tumor senescence. After 10 days, LX-5701 mixed in PBS at a concentration of 360 mg/kg was administered orally daily for 21 days, or LX-2101 mixed in PBS solution with 5% DMSO at a concentration of 20 mg/kg or LX-2102 mixed in PBS with 5% DMSO at a concentration of 10 mg/kg was administered intraperitoneally daily for 21 days, and then the tumor size was measured. The control group was repeatedly administered a solution mixed with doxorubicin, and then the tumor size was measured.

In assay [2] the test system is SAMP8 mice. Briefly: Cognitive impairment in SAMP8 mice (p16 mRNA, Y maze), Example 28, Table 52. To be noted: for Spontaneous alternation: Y maze test, 8 minutes, untreated 48.4 (±27.3); for p16 mRNA: hippocampus, daily for 21 days, untreated 100%. How it is done:
Twelve-week-old male SAMP8 mice (SLC), a cognitive impairment model, were acclimated to the experimental environment for one week and then randomly assigned to experimental and control groups. […] LX-2101 was mixed with 5% DMSO (Sigma) in PBS and administered intraperitoneally at a concentration of 10 mg/kg daily for 21 days. The control group received only the same volume of solution. After drug administration, the mice were tested in the Y maze test to analyze the degree of cognitive and memory improvement. The Y-maze test is a method to assess short-term memory-type spatial awareness. It is a Y-shaped enclosed maze made of black acrylic to the following specifications (40 cm in length, 8 cm in width, 13 cm in height, with each arm angled 120 degrees). Three arms are designated A, B, and C. A mouse is carefully placed on one arm and allowed to move freely for 8 minutes. The arm into which the mouse enters up to its tail is recorded in order. Each instance of entering each arm sequentially is awarded 1 point (actual alternation). Alternation behavior is defined as entering all arms without overlapping, and spontaneous alternation behavior is calculated using the following formula:
Spontaneous alternation behavior (%)=Actual alternation/Maximum alternation×100 • Maximum alternation: Total number of entries-2
After the behavioral evaluation, the mice were sacrificed, and RNA from the hippocampus region of the brain was extracted using the same method as Example 7-2 of WO2023-085787 A1, and qRT-PCR was performed using the synthesized cDNA.

The subject of assay [3] is naturally aged C57BL6J mice. The experiment in a line: SASP mRNA (MMP3, IL1B, MMP12, IL6, MMP13) in naturally aged mice, Example 21-6, Table 22. The note with it: untreated aged = 100%. How it is done:
(§1) 22-month-old female C57BL6J mice (KRIBB Laboratory Animal Resource Center) were acclimated to the experimental environment for one week, after which the aged mice were randomly assigned to experimental and control groups. Eight-week-old, non-aged mice served as controls. LX-403 was mixed in a 10% ethanol solution of PEG400 and administered orally at a concentration of 25 mg/kg daily for 21 days, or administered to the skin, joints, or eyes at a concentration of 1 μM. LX-1801 was mixed in distilled water with 4% DMSO, 30% PEG300, and 5% Tween80 and administered to the skin, joints, or eyes at a concentration of 0.4 μM daily for 21 days. LX-2001 was mixed in PBS and administered to the skin, joints, or eyes at a concentration of […] daily for 21 days. LX-2002 was mixed in distilled water with 4% DMSO, 30% PEG300, and 5% Tween80 and administered to the skin, joints, or eyes at a concentration of 2 μM daily for 21 days. […] LX-2005 was mixed in distilled water with 4% DMSO, 30% PEG300, and 5% Tween80 and administered to the skin, joints, or eyes at a concentration of 90 μM daily for 21 days. LX-2007 was mixed in distilled water with 4% DMSO, 30% PEG300, and 5% Tween80 and administered to the skin, joints, or eyes at a concentration of 90 μM daily for 21 days. […] LX-3002 was mixed in distilled water with 4% DMSO, 30% PEG300, and 5% Tween80 and administered orally at a concentration of 10 mg/kg daily for 21 days. […] LX-5411 was mixed in 5% PBS and administered orally at a concentration of 10 mg/kg daily for 21 days or administered to the skin, joints, or eyes at a concentration of 3 μM. LX-5701 was mixed in PBS and administered orally at a concentration of 360 mg/kg daily for 21 days. LX-6807 was mixed in saline and administered intraperitoneally at a concentration of 1 mg/kg daily for 21 days. LX-2101 or LX-2102 was mixed in PBS solution with 5% DMSO and administered intraperitoneally at a concentration of 20 mg/kg or 10 mg/kg, respectively, daily for 21 days. The control group received only the solution in the same volume. After the end of drug administration, the methods described in each example below were performed.
Using cDNA synthesized in the same manner as Example 7-2 of WO2023-085787 A1, qRT-PCR was performed and analyzed for the senescence-associated secretory factors (SASPs) MMP3, IL1B, MMP12, IL6, and MMP13. […] The mRNA levels of each factor after aging induction were calculated as 100% and compared with the mRNA levels of each factor after test compound treatment.

For assay [4], the system named is naturally aged C57BL6J mice. Briefly: Cardiac aging (cardiomyocyte size, Sur2a mRNA) in naturally aged mice, Example 21-13, Table 28. To be noted: heart; for Cardiomyocyte cross-sectional area (μm2): untreated aged 372 (±9); for Sur2a mRNA (fold): untreated aged = 1. The protocol: as §1
At the histological level, cardiac aging is characterized by the loss of ventricular cardiomyocytes due to a decreased ability to replace apoptotic or necrotic cardiomyocytes, leading to hypertrophy of the remaining cardiomyocytes. To assess age-related cardiac hypertrophy, frozen cardiac tissue sections were stained with hematoxylin/eosin (H/E) and the thickness of ventricular cardiomyocytes was observed under an optical microscope.
Furthermore, cardiac aging is characterized by decreased stress tolerance, which is known to be due to decreased expression of ATP-sensitive potassium (KATP) channels. RNA was extracted from heart tissue as described in Example 7-2 of WO2023-085787 A1, and qRT-PCR was performed on Sur2a, a regulatory subunit of the KATP channel, using the synthesized cDNA.

`CC1(C)CC[C@]2(NC(=O)C(C)(F)F)CC[C@]3(C)[C@H](C(=O)C=C4[C@@]5(C)C=C(C#N)C(=O)C(C)(C)[C@@H]5CC[C@]43C)[C@@H]2C1` [LX-2101, Omaveloxolone]: in assay [1], the “Tumor Diameter” value is listed as 6.8 (±1.4) mm. In assay [2], the Spontaneous alternation is 51.1 (±16.8) % and the “p16 mRNA” value is given as 82 (±7.1) %. Moreover, in assay [3], the “MMP13 mRNA (%), Eye” value stood at 35%; the “IL1β mRNA (%), Kidney” value came to 73%; the “MMP13 mRNA (%), Knee joint” value is 46%; the “MMP3 mRNA (%), Liver” value amounted to 45%. Besides, in assay [3], the “MMP12 mRNA (%), Lung” value was determined as 58%; the “IL6 mRNA (%), Muscle” value is 69%; the “MMP3 mRNA (%), Skin” value came to 81%; the “MMP12 mRNA (%), Skin” value amounted to 82%. The “MMP13 mRNA (%), Skin” value in assay [3] is on record as 38%.

As to `COC(=O)[C@]12CCC(C)(C)C[C@H]1[C@H]1C(=O)C=C3[C@@]4(C)C=C(C#N)C(=O)C(C)(C)[C@@H]4CC[C@@]3(C)[C@]1(C)CC2` [LX-2102, Bardoxolone methyl], the “Tumor Diameter” value in assay [1] is listed as 7.1 (±2.6) mm. Also, in assay [3], the “MMP13 mRNA (%), Eye” value is on record as 71%; the “IL1β mRNA (%), Kidney” value came to 68%; the “MMP13 mRNA (%), Knee joint” value is reported as 77%; the “MMP3 mRNA (%), Liver” value turned out to be 56%. In assay [3], the “MMP12 mRNA (%), Lung” value worked out at 66%; the “IL6 mRNA (%), Muscle” value is recorded as 81%; the “MMP3 mRNA (%), Skin” value was 83%; the “MMP12 mRNA (%), Skin” value was 78%. Besides, in assay [3], the “MMP13 mRNA (%), Skin” value was determined as 68%.

In the case of `CCCC\C=C/C=C/C=C\CCCCCCCC(=O)O` [LX-2707, Punicic acid], in assay [2], the Spontaneous alternation was 54.5 (±2.0) % and the “p16 mRNA” value is recorded as 75 (±3.3) %. Further, the “Cardiomyocyte cross-sectional area (μm2)” value in assay [4] was 331 (±15.7) μm2.

As for `O=C1C2CCN(CC2)C1CNC(=O)C(F)(F)F` (stereo not shown) [LX-5701], in assay [1], the “Tumor Diameter” value is on record as 6.1 (±4.9) mm. Moreover, in assay [2], the Spontaneous alternation was 62.7 (±11.9) % and the “p16 mRNA” value is given as 70 (±9.6) %. In assay [4], the “Cardiomyocyte cross-sectional area (μm2)” value is reported as 297 (±20) μm2 and the “Sur2a mRNA (fold)” value is reported as 2.8 (±0.2) fold. For the same compound, in assay [3], the “MMP13 mRNA (%), Eye” value was determined as 71%; the “IL1β mRNA (%), Kidney” value came to 58%; the “MMP13 mRNA (%), Knee joint” value is given as 61%; the “MMP3 mRNA (%), Liver” value is given as 59%. In assay [3], the “MMP12 mRNA (%), Lung” value amounted to 70%; the “IL6 mRNA (%), Muscle” value came out at 38%; the “MMP3 mRNA (%), Skin” value was 79%; the “MMP12 mRNA (%), Skin” value is listed as 71%. Besides, the “MMP13 mRNA (%), Skin” value in assay [3] was 62%.

Consider `Cc1cccc([C@H](C)c2cnc[nH]2)c1C` [LX-6807, Dexmedetomidine], for which, in assay [2], the Spontaneous alternation is 60.7 (±4.3) % and the “p16 mRNA” value is recorded as 39 (±6.2) %. Besides, in assay [4], the “Cardiomyocyte cross-sectional area (μm2)” value is given as 281 (±47.1) μm2 and the “Sur2a mRNA (fold)” value is given as 3.0 (±0.2) fold.

In the case of Tocofersolan [LX-3001], in assay [2], the Spontaneous alternation is recorded as 50.6 (±3.6) % and the “p16 mRNA” value is given as 64 (±2.8) %. Moreover, the “Cardiomyocyte cross-sectional area (μm2)” value in assay [4] is listed as 345 (±27.6) μm2.
